87 compounds from PubChem BioAssay AID1117324 (Cheminformatics & Chemogenomics Research Group (CCRG), …, 2015) can be followed below.

Activity calls are given as the source filed them. How the calls were made is not given here.

The test system of the assay is VEGF-stimulated ADSC/ECFC co-culture, nuclear area imaging. Nature of the assay: nuclear area loss in endothelial-stromal co-culture, dose response, cell-based, VEGF stimulation, IC50 (AID 1117324).
By IC50 is commonly meant the concentration that gives 50% inhibition. For `O=C(CCCN1CCC(O)(c2cccc(C(F)(F)F)c2)CC1)c1ccc(F)cc1`, the IC50 was > 10 µM (inactive).

As for `CCCCCCCCCCCCCCCC[N+](C)(C)CCN(Cc1ccc(OC)cc1)c1ncccn1`, the IC50 is > 10 µM (inactive).

With `Oc1ccc(/C=C/c2cc(O)cc(O)c2)cc1`, the IC50 is > 10 µM (inactive).

`NC(=O)n1c(O)c(C(=O)c2cccs2)c2cc(Cl)ccc21`: the IC50 is > 10 µM (inactive).

Take `C[C@]12CC[C@@H]3c4ccc(O)cc4CC[C@H]3[C@@H]1CC[C@@H]2OC(=O)CCC1CCCC1`: the IC50 was > 10 µM (inactive).

As to `CCCCCCCC[N+](C)(C)CCCCCCCC`, the IC50 was 7.43 µM (inactive).

Regarding `CC(=O)Oc1ccccc1C(=O)Nc1ncc([N+](=O)[O-])s1`, the IC50 was > 10 µM (inactive).

As for `CCCCCCCCCCCC(=O)[O][Sn]([CH2]CCC)([CH2]CCC)[O]C(=O)CCCCCCCCCCC`, the IC50 is > 10 µM (inactive).

On to `C/C(=C(/OCCOc1ccc(Cl)cc1)c1ccc(Cl)cc1Cl)n1ccnc1`, for which the IC50 was 9.42 µM (inactive).

For `OCCN1CCN(CCCN2c3ccccc3Sc3ccc(Cl)cc32)CC1`, the IC50 was > 10 µM (inactive).

For the compound `CCC(C(=O)OCCOCCN(CC)CC)c1ccccc1` (configuration not stated), the IC50 was > 10 µM (inactive).

Turning to `C[C@@H](NCCCc1cccc(C(F)(F)F)c1)c1cccc2ccccc12`, the IC50 is > 10 µM (inactive).

Turning to `COc1ccc2c(c1)c1c3n2CCN(C)C3=NCC1`, the IC50 was > 10 µM (inactive).

Take `CN1CC[C@H](c2c(O)cc(O)c3c(=O)cc(-c4ccccc4Cl)oc23)[C@H](O)C1`: the IC50 was 0.328 µM.

In the case of `CCCCc1ccc2nc(NC(=O)OC)[nH]c2c1`, the IC50 was > 10 µM (inactive).

Consider `CC[C@@]1(O)C(=O)OCc2c1cc1n(c2=O)Cc2c-1nc1ccccc1c2/C=N/OC(C)(C)C`, for which the IC50 is 0.799 µM.

`CCCCCCNC(=O)n1cc(F)c(=O)[nH]c1=O`: the IC50 was > 10 µM (inactive).

Consider `CCOP(=S)(OCC)SCSc1ccc(Cl)cc1`, for which the IC50 was > 10 µM (inactive).

For `CNS(=O)(=O)CCc1ccc2[nH]cc(C3CCN(C)CC3)c2c1`, the IC50 was > 10 µM (inactive).

With `O=NN(CCCl)C(=O)NC1CCCCC1`, the IC50 was > 10 µM (inactive).

On to `C#C[C@]1(OC(C)=O)CC[C@H]2[C@@H]3CCC4=C/C(=N/O)CC[C@@H]4[C@H]3CC[C@@]21CC`, for which the IC50 is > 10 µM (inactive).

Regarding `O=C1c2c(O)cccc2Cc2cccc(O)c21`, the IC50 is > 10 µM (inactive).

Take `CCC1Nc2cc(Cl)c(S(N)(=O)=O)cc2S(=O)(=O)N1` (configuration not stated): the IC50 is > 10 µM (inactive).

Consider `CS(=O)(=O)CCNCc1ccc(-c2ccc3ncnc(Nc4ccc(OCc5cccc(F)c5)c(Cl)c4)c3c2)o1`, for which the IC50 is > 10 µM (inactive).

Consider `CC(C)(C)CC(C)(C)c1ccc(O)cc1`, for which the IC50 is 9.11 µM (inactive).

On to `COC(=O)C1=C(C)NC(C)=C(C(=O)OC(C)(C)CN(C)CCC(c2ccccc2)c2ccccc2)C1c1cccc([N+](=O)[O-])c1` (configuration not stated), for which the IC50 is > 10 µM (inactive).

Consider `CCC1C(=O)OCC1Cc1cncn1C` (configuration not stated), for which the IC50 is > 10 µM (inactive).

Consider `CCc1cccc(N(C)C(N)=Nc2cccc3ccccc23)c1`, for which the IC50 was > 10 µM (inactive).

With `CN1CCN(c2cc3c(nn2)Oc2ccccc2N3C)CC1`, the IC50 is > 10 µM (inactive).

For the compound `CCCCCCCCOc1ccccc1C(=O)Nc1ccc(C(=O)OCC[N+](C)(CC)CC)cc1`, the IC50 was 8.47 µM (inactive).

Turning to `Oc1ccc(O)cc1`, the IC50 is > 10 µM (inactive).

Turning to `O=C1NC2CCCCN2C12CCN(CCCN1c3ccccc3CCc3ccc(Cl)cc31)CC2` (configuration not stated), the IC50 is > 10 µM (inactive).

With `O=C(Nc1ccc([N+](=O)[O-])cc1)Nc1ccc([N+](=O)[O-])cc1`, the IC50 is > 10 µM (inactive).

As for `CCCCCCCCCCCCCCCC[n+]1ccccc1`, the IC50 was 3.01 µM.

For `C#C[C@]1(O)CC[C@H]2[C@@H]3CCc4cc(O)ccc4[C@H]3CC[C@@]21C`, the IC50 is > 10 µM (inactive).

Consider `COC(=O)Nc1nc2ccc(C(=O)c3cccs3)cc2[nH]1`, for which the IC50 was > 10 µM (inactive).

`S=c1nc[nH]c2nc[nH]c12`: the IC50 was > 10 µM (inactive).

As to `CCN[C@@H](C)Cc1cccc(C(F)(F)F)c1`, the IC50 was > 10 µM (inactive).

Take `CN(C)c1ccc(C(=C2C=CC(=[N+](C)C)C=C2)c2ccccc2)cc1`: the IC50 is 1.72 µM.

For the compound `CCc1oc2ccccc2c1C(=O)c1cc(I)c(O)c(I)c1`, the IC50 was > 10 µM (inactive).

For `O=c1c(-c2ccc(O)cc2)coc2cc(O)cc(O)c12`, the IC50 is > 10 µM (inactive).

`C[C@H]1O[C@@H](O[C@H]2[C@@H](O)C[C@H](O[C@H]3[C@@H](O)C[C@H](O[C@H]4CC[C@@]5(C)[C@H](CC[C@@H]6[C@@H]5CC[C@]5(C)[C@@H](C7=CC(=O)OC7)CC[C@]65O)C4)O[C@@H]3C)O[C@@H]2C)C[C@H](O)[C@@H]1O`: the IC50 is 0.103 µM.

As to `COc1cc([C@@H]2c3cc4c(cc3[C@@H](O[C@@H]3O[C@@H]5CO[C@@H](C)O[C@@H]5[C@H](O)[C@@H]3O)[C@H]3COC(=O)[C@H]23)OCO4)cc(OC)c1O`, the IC50 was 0.967 µM.

Consider `C=CCN1CC[C@]23CCCC[C@H]2[C@H]1Cc1ccc(O)cc13`, for which the IC50 is > 10 µM (inactive).

With `Cc1cc(C(C#N)c2ccc(Cl)cc2)c(Cl)cc1NC(=O)c1cc(I)cc(I)c1O` (configuration not stated), the IC50 was 7.36 µM (inactive).

In the case of `CC(C)=CCNc1ncnc2c1ncn2[C@@H]1O[C@H](CO)[C@@H](O)[C@H]1O`, the IC50 was > 10 µM (inactive).

Turning to `C#C[C@]1(O)CC[C@@H]2[C@@H]3CCC4=CCCC[C@@H]4[C@H]3C(=C)C[C@@]21CC`, the IC50 was 9.57 µM (inactive).

Regarding `Cc1[nH]cnc1C[C@H]1CCc2c(C)c3ccccc3n2C1=O`, the IC50 is > 10 µM (inactive).

As for `Cc1ccc2nc(N)[nH]c(=O)c2c1Sc1ccncc1`, the IC50 is > 10 µM (inactive).

Regarding `[O-][n+]1ccccc1SSc1cccc[n+]1[O-]`, the IC50 is 1.79 µM.

As to `Clc1ccc(C(Cn2ccnc2)OCc2ccc(Sc3ccccc3)cc2)c(Cl)c1` (configuration not stated), the IC50 was > 10 µM (inactive).

Turning to `CCOC(=O)[C@H](CCc1ccccc1)N[C@@H](C)C(=O)N1C(=O)N(C)C[C@H]1C(=O)O`, the IC50 was > 10 µM (inactive).

Turning to `CC=CC1C(C(=O)OCc2c(F)c(F)c(COC)c(F)c2F)C1(C)C` (configuration not stated), the IC50 was > 10 µM (inactive).

With `CCCCCCCCCCCCCCNCCO`, the IC50 was 9.19 µM (inactive).

In the case of `CN(C)C(=S)SSC(=S)N(C)C`, the IC50 is > 10 µM (inactive).

Turning to `CCc1c2c(nc3ccc(OC(=O)N4CCC(N5CCCCC5)CC4)cc13)-c1cc3c(c(=O)n1C2)COC(=O)[C@]3(O)CC`, the IC50 was 8.12 µM (inactive).

As for `C[C@H](O)CN(C)C`, the IC50 is > 10 µM (inactive).

As to `CC(C)=CCCC(C)=CCCC(C)=CCCC=C(C)CCC=C(C)CCC=C(C)C`, the IC50 is > 10 µM (inactive).

Turning to `CC(C)=CCOc1ccc(/C=C/C(=O)c2ccc(OCC=C(C)C)cc2OCC(=O)O)cc1`, the IC50 is > 10 µM (inactive).

In the case of `CCCCCCCCCCCC[N+](C)(C)Cc1ccccc1`, the IC50 is 6.93 µM (inactive).

In the case of `O=c1[nH]cc(F)c(=O)[nH]1`, the IC50 is > 10 µM (inactive).

On to `Cc1c(C(=O)NN2CCCCC2)nn(-c2ccc(Cl)cc2Cl)c1-c1ccc(Cl)cc1`, for which the IC50 is > 10 µM (inactive).

Turning to `Cc1cccc(C)c1NC(=O)CN1CCN(CCCC(c2ccc(F)cc2)c2ccc(F)cc2)CC1`, the IC50 is 9.37 µM (inactive).

Consider `Cc1c(N)cccc1C(F)(F)F`, for which the IC50 is > 10 µM (inactive).

As to `Cc1cc(-c2ccc(N=Nc3c(S(=O)(=O)O)cc4cc(S(=O)(=O)O)cc(N)c4c3O)c(C)c2)ccc1N=Nc1c(S(=O)(=O)O)cc2cc(S(=O)(=O)O)cc(N)c2c1O`, the IC50 was > 10 µM (inactive).

Regarding `CC1=C(/C=C/C(C)=C/C=C/C(C)=C/C(=O)Nc2ccc(O)cc2)C(C)(C)CCC1`, the IC50 is 6.24 µM (inactive).

In the case of `CCN(CC)CCOc1ccc(C(O)(Cc2ccc(Cl)cc2)c2ccc(C)cc2)cc1` (configuration not stated), the IC50 was 6.98 µM (inactive).

As to `CC[N+](CC)(CC)CCOc1ccc(/C=C/c2ccccc2)cc1`, the IC50 was > 10 µM (inactive).

Consider `CC(=O)[O][Hg][c]1ccccc1`, for which the IC50 is 0.883 µM.

With `O=c1c(-c2ccccc2)c1-c1ccccc1`, the IC50 is 6.75 µM (inactive).

Turning to `O=C(Nc1ccc(S(=O)(=O)N2CCOCC2)cc1)c1cc(Cl)ccc1NS(=O)(=O)c1ccc(Cl)s1`, the IC50 is > 10 µM (inactive).

For the compound `Cc1ccccc1C(=O)Nc1ccc(C(=O)N2CCCC(N(C)C)c3ccccc32)cc1` (configuration not stated), the IC50 is > 10 µM (inactive).

On to `CCCCN1CCCC1C(=O)Nc1c(C)cc(C)cc1C` (configuration not stated), for which the IC50 was > 10 µM (inactive).

Regarding `COC(=O)Nc1nc2ccc(S(=O)c3ccccc3)cc2[nH]1` (configuration not stated), the IC50 was > 10 µM (inactive).

As to `S=C=Nc1ccc(N=C=S)cc1`, the IC50 is > 10 µM (inactive).

For `Nc1ncn([C@@H]2O[C@H](CO)[C@@H](O)[C@H]2O)c(=O)n1`, the IC50 is > 10 µM (inactive).

In the case of `CC(=O)Oc1cccc2c1C(=O)c1c(OC(C)=O)cc(C(=O)O)cc1C2=O`, the IC50 is > 10 µM (inactive).

Regarding `CC12CCC(CC1)C(C)(C)O2`, the IC50 is > 10 µM (inactive).

As for `CCCCCCOC(=O)c1cccnc1`, the IC50 was > 10 µM (inactive).

Turning to `N/C(=N\N=C\c1ccc(Cl)cc1)N/N=C/c1ccc(Cl)cc1`, the IC50 is > 10 µM (inactive).

`COc1ccc([C@@H]2Sc3ccccc3NC(=O)[C@@H]2O)cc1`: the IC50 is > 10 µM (inactive).

With `Oc1ccc(Cl)cc1Sc1cc(Cl)ccc1O`, the IC50 is 8.69 µM (inactive).

On to `C=CC(C)(O)CCC=C(C)CCC=C(C)C` (configuration not stated), for which the IC50 was > 10 µM (inactive).

Consider `COC(=O)Nc1nc2ccc(C(=O)C3CC3)cc2[nH]1`, for which the IC50 is > 10 µM (inactive).

In the case of `O=C1OC(OC(=O)c2cccnc2Nc2cccc(C(F)(F)F)c2)c2ccccc21` (configuration not stated), the IC50 was > 10 µM (inactive).

In the case of `CC(C)(CO)[C@@H](O)C(=O)NCCC(=O)NCCSSCCNC(=O)CCNC(=O)[C@H](O)C(C)(C)CO`, the IC50 is > 10 µM (inactive).

For `CCN(CC)C(=O)c1cccnc1`, the IC50 was > 10 µM (inactive).
